# Read-outs that look alike come from different tables or passages of the source.
# Experiments:
# Type in all cases: in vivo
# [1] = test system: Frankliniella occidentalis larvae; assay: Frankliniella occidentalis Larva Controlling Activity Test; conditions: 72 h; for mortality at 3.25 ppm: read-out: mortality for Frankliniella occidentalis larvae; for mortality at 1.56 ppm / mortality at 3.125 ppm / mortality at 6.25 ppm: in Brassica oleracea
# Method: Frankliniella occidentalis Larva Controlling Activity Test:
# The test compound is dissolved in acetone and diluted to the desired concentration. 0.5 mL of the prepared acetone medicinal liquid is added into a glass tube (the inner diameter is 1 cm, the length is 10 cm), and the glass tube is repeatedly rolled on a flat table until the acetone solution is completely volatilized. Soaking cabbage leaves in the liquid medicine with the corresponding concentration for 15 s, drying, placing in a glass tube, inoculating 10-20 heads of Frankliniella occidentalis larvae in the glass tube, repeating the treatment for three times, observing in a constant-temperature observation room after the treatment, investigating the number of live insects after 72 hours, and calculating the mortality.
# [2] = test system: Resistant Plutella xylostella; assay: Resistant Plutella xylostella Controlling Activity Test; conditions: for Mortality (%): 0.2 ppm, 2nd instar, resistant, radish leaves dipped 10 s, 72 h (three days); for mortality at 0.2 ppm / mortality at 1 ppm / mortality at 5 ppm: Plutella xylostella, in Raphanus sativus, 72 h
# Method: Resistant Plutella xylostella Controlling Activity Test:
# Leaf dipping method was used, the appropriate amount of radish leaves were dipped into the drug for 10 s, placed in a plastic petri dish padded with filter paper and dried naturally, each dish was connected with 10 heads of 2nd instar small cabbage moths, placed in the observation room at 24° C. and light (16/8 h). 72 h later observation was made, and the body of the insect was touched lightly with a brush and no reaction was regarded as a dead insect, which was repeated for three times, and a blank control was also set up without any additional agent.
# [3] = test system: Sensitive Plutella xylostella; assay: Sensitive Plutella xylostella Controlling Activity Test
# Text: Sensitive Plutella xylostella Controlling Activity Test:
# Test targets: Plutella xylostella, 3 rd instar larvae, a sensitive strain raised indoors.
# The test method comprises the following steps: selecting fresh cabbage leaves cultivated in a greenhouse, making the cabbage leaves into round with the diameter of 3 cm by using a puncher, putting the circular blade into prepared liquid medicine to be soaked for 10 s according to the sequence from low dose to high dose of experimental design, naturally drying the cabbage leaves in the shade, putting the soaked cabbage leaves into a culture dish with filter paper and the diameter of 9 cm, inoculating regular healthy test insects, n=10, repeating the treatment for 3 times, and additionally setting blank control.
# Tetranychus cinnabarinus = Tetranychus cinnabarinus Controlling Activity Test; conditions: 72 h; for mortality at 1.6 ppm: read-out: mortality against Tetranychus cinnabarinus; for mortality at 1.56 ppm / mortality at 3.125 ppm / mortality at 6.25 ppm / mortality at 12.5 ppm: in Phaseolus vulgaris
# Method: Tetranychus cinnabarinus Controlling Activity Test:
# The test compound was dissolved in acetone and diluted to the desired concentration with 0.1 wt % aqueous tween 80, the acetone content not exceeding 5 wt %.
# One real leaf was removed from kidney bean seedlings grown to two real leaves, inoculating Tetranychus cinnabarinus, investigating the base number, performing whole plant spraying treatment by using a handheld sprayer, repeating the treatment for 3 times (the application amount of the preparation is about 0.5 g), observing in a constant-temperature observation room after the treatment, investigating the number of live mites after 72 hours, and calculating the mortality. The number of Tetranychus cinnabarinus inoculated in each time is 35-100.
# Mortality%=(number of inoculated insects−number of live insects after drug administration)÷number of inoculated insects×100%
# Spodoptera frugiperda = Spodoptera frugiperda Indoor Toxicity Determination Test; conditions: in Zea mays, read-out: mortality against Spodoptera frugiperda
# Text: Spodoptera frugiperda Indoor Toxicity Determination Test
# Test targets: Spodoptera frugiperda, 3rd instar larvae, a sensitive strain raised indoors.
# The test method comprises the following steps: firstly, selecting fresh corn leaves cultivated in a greenhouse, cutting the fresh corn leaves into 5 cm-long leaf segments, sequentially arranging the test design from low dose to high dose, soaking the fresh corn leaves in prepared liquid medicine for 10 s, naturally drying the fresh corn leaves in the shade, then placing the dried corn leaves in a culture dish with filter paper and the diameter of 9 cm, inoculating regular healthy test insects, n=10, repeating the treatment for 3 times, and additionally arranging blank control.
# Phyllotreta striolata = Phyllotreta striolata Controlling Activity Test; conditions: 72 h, read-out: mortality against Phyllotreta striolata
# Method: Phyllotreta striolata Controlling Activity Test:
# Preparing liquid medicine according to the experimental design concentration, selecting fresh cabbage leaves, soaking the cabbage leaves for 15 s, taking out, airing, placing in a glass tube, connecting 20-25 heads of the Flea beetles adults with each tube, repeating the treatment for 3 times, investigating the death condition of the Phyllotreta striolata after 72 hours, and calculating and correcting the death rate.
# [4] = read-out: mortality against Plutella xylostella
Structure (SMILES),mortality at 3.25 ppm [1] [%],mortality at 1.56 ppm [1] [%],mortality at 3.125 ppm [1] [%],mortality at 6.25 ppm [1] [%],Mortality (%) [2] [%],mortality at 0.2 ppm [2] [%],mortality at 1 ppm [2] [%],mortality at 5 ppm [2] [%],"mortality at 0.333 ppm ([3]; in Brassica oleracea, 72 h) [%]","mortality at 1 ppm ([3]; in Brassica oleracea, 72 h) [%]","mortality at 1 ppm [3, 4] [%]",mortality at 1.6 ppm (Tetranychus cinnabarinus) [%],mortality at 1.56 ppm (Tetranychus cinnabarinus) [%],mortality at 3.125 ppm (Tetranychus cinnabarinus) [%],mortality at 6.25 ppm (Tetranychus cinnabarinus) [%],mortality at 12.5 ppm (Tetranychus cinnabarinus) [%],mortality at 1 ppm (Spodoptera frugiperda) [%],mortality at 50 ppm (Phyllotreta striolata) [%]
"Cc1cc(C2=NOC(c3cc(Cl)c(F)c(Cl)c3)(C(F)(F)F)C2)ccc1C(=O)NC1CCS(=O)(=O)C1.I (stereo not drawn) [Compound I-1, 4-(5-(3,5-dichloro-4-fluorophenyl)-5-(trifluoromethyl)-4,5-dihydroisoxazol-3-yl)-N-(1,1-dioxotetrahydrothiophen-3-yl)-2-methylbenzamide]",> 90,100,100,100,100,100,100,100,80,100,> 90,> 90,94.3,100,100,100,> 90,> 90
"Cc1cc(C2=NOC(c3cc(C(F)(F)F)cc(C(F)(F)F)c3)(C(F)(F)F)C2)ccc1C(=O)NC1CCS(=O)(=O)C1 (stereo not drawn) [Compound I-25, 4-(5-(3,5-bis(trifluoromethyl)phenyl)-5-(trifluoromethyl ester)-4,5-dihydroisoxazol-3-yl)-N-(1,1-dioxotetrahydrothiophen-3-yl)-2-methylbenzamide]",> 90,100,100,100,100,100,100,100,65,100,> 90,> 90,90.3,99.3,100,100,> 90,> 90

# From patent US20260293897A1, “COMPOUND CONTAINING FIVE-MEMBERED HETEROCYCLE, PREPARATION METHOD THEREFOR, AND APPLICATION THEREOF” (QINGDAO KANGQIAO PESTICIDES AND CHEMICALS GROUP CO., LTD., priority 2022, published 2026)
